Measurements published in patent publication US6479435B1, “Diaryl ethers and processes for their preparation and herbicidal and desiccant compositions containing them” (ISK Americas Incorporated, priority 1997, dated 2002).

Legend:
Format in all cases: in vivo
[1] = test system: soybean (Glycine max L., var. Pella 86, SOY); test: Pre-emerge greenhouse test, crop damage rating; parameters: key to SOY crop damage rating: 0 = no damage, 100 = complete death of all plants; conditions: 14 days after application, rating scale 0-100
Method in brief: (§1)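 Visual 0–100 injury rating (100 = all plants dead) taken 14 days after treatment. Rates of 125–1000 g ai/ha in acetone, 187 l/ha, were sprayed onto soil one day post-sowing; pots were surface-watered to incorporate, then bottom-watered.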

[2] = test system: green foxtail (Setaria viridis, SETVI); test: Post-emerge greenhouse herbicide test, phytotoxicity rating; conditions: 14 days after application; for phytotoxicity rating SETVI: scale 0-100
Method in brief: (§2)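 Scores use a 0 (no damage) to 100 (complete kill) scale, taken 14 days after a foliar spray. Acetone solutions with 0.25% v/v non-ionic surfactant were applied by track sprayer at 187 l/ha and 63-1000 g ai/ha to bottom-watered 2-3 leaf plants.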

[3] = test system: velvetleaf (Abutilon theophrasti, ABUTH); test: as above; conditions: 14 days after application; for phytotoxicity rating ABUTH: scale 0-100
Method in brief: as §2

[4] = test system: large crabgrass (Digitaria sanguinalis, DIGSA); test: as above; conditions: 14 days after application; for phytotoxicity rating DIGSA: scale 0-100
Method in brief: as §2

[5] = test system: lambsquarters (Chenopodium album, CHEAL); test: as above; conditions: 14 days after application; for phytotoxicity rating CHEAL: scale 0-100
Method in brief: as §2

[6] = test system: redroot pigweed (Amaranthus retroflexus, AMARE); test: as above; conditions: 14 days after application; for phytotoxicity rating AMARE: scale 0-100
Method in brief: as §2

[7] = test system: ivyleaf morningglory (Ipomoea hederacea, IPOHE); test: as above; conditions: 14 days after application; for phytotoxicity rating IPOHE: scale 0-100
Method in brief: as §2

[8] = test system: barnyardgrass (Echinochloa crusgalli, ECHCG); test: as above; conditions: 14 days after application; for phytotoxicity rating ECHCG: scale 0-100
Method in brief: as §2

[9] = test system: Johnsongrass (Sorghum halepense, SORHA); test: as above; conditions: 14 days after application
Method in brief: as §2

[10] = test system: green foxtail (Setaria viridis, SETVI); test: Pre-emerge greenhouse herbicide test, phytotoxicity rating; conditions: 14 days after application, rating scale 0-100
Method in brief: as §1

[11] = test system: velvetleaf (Abutilon theophrasti, ABUTH); test: as above; conditions: 14 days after application, rating scale 0-100
Method in brief: as §1

[12] = test system: large crabgrass (Digitaria sanguinalis, DIGSA); test: as above; conditions: 14 days after application, rating scale 0-100
Method in brief: as §1

[13] = test system: lambsquarters (Chenopodium album, CHEAL); test: as above; conditions: 14 days after application, rating scale 0-100
Method in brief: as §1

[14] = test system: common ragweed (Ambrosia artemisiifolia L., AMBEL); test: as above; conditions: 14 days after application, rating scale 0-100
Method in brief: as §1

[15] = test system: redroot pigweed (Amaranthus retroflexus, AMARE); test: as above; conditions: 14 days after application, rating scale 0-100
Method in brief: as §1

[16] = test system: ivyleaf morningglory (Ipomoea hederacea, IPOHE); test: as above; conditions: 14 days after application, rating scale 0-100
Method in brief: as §1

[17] = test system: barnyardgrass (Echinochloa crusgalli, ECHCG); test: as above; conditions: 14 days after application, rating scale 0-100
Method in brief: as §1

[18] = test system: sicklepod (Cassia obtusifolia, CASOB); test: as above; conditions: 14 days after application, rating scale 0-100
Method in brief: as §1

[19] = test system: Johnsongrass (Sorghum halepense, SORHA); test: as above; conditions: 14 days after application, rating scale 0-100
Method in brief: as §1

[20] = test system: upland rice (Oryza sp., var.Tebonnet, RICE); test: Pre-emerge greenhouse test, crop damage rating; conditions: 14 days after application, rating scale 0-100
Method in brief: as §1

[21] = test system: field corn (Zea mays L., var. Dekalb 535, CORN); test: Pre-emerge greenhouse test, crop damage rating; conditions: 14 days after application, rating scale 0-100
Method in brief: as §1

[22] = test system: upland rice (Oryza sp., var.Tebonnet, RICE); test: Post-emerge greenhouse test, crop damage rating; conditions: 14 days after application; for crop damage rating RICE: scale 0-100
Method in brief: as §2

[23] = test system: field corn (Zea mays L., var. Dekalb 535, CORN); test: Post-emerge greenhouse test, crop damage rating; conditions: 14 days after application; for crop damage rating CORN: scale 0-100
Method in brief: as §2

[24] = test system: common ragweed (Ambrosia artemisiifolia L., AMBEL); test: Post-emerge greenhouse herbicide test, phytotoxicity rating; conditions: 14 days after application; for phytotoxicity rating AMBEL: scale 0-100
Method in brief: as §2

[25] = test system: soybean (Glycine max L., var. Pella 86, SOY); test: Post-emerge greenhouse test, crop damage rating; parameters: key to crop damage rating SOY: 0-100 scale: 0 = no damage, 100 = complete death of all plants; conditions: 14 days after application; for crop damage rating SOY: scale 0-100
Method in brief: as §2

Cc1nsc(Oc2cc(-n3c(=O)n4n(c3=S)CCCC4)c(F)cc2Cl)c1[N+](=O)[O-] [Compound 8-35]
80: phytotoxicity rating CHEAL ([5]; rate 63 g ai/ha) | phytotoxicity rating ECHCG ([8]; rate 500 g ai/ha) | phytotoxicity rating SORHA ([9]; rate 500 g ai/ha, scale 0-100) | DIGSA phytotoxicity rating ([12]; Rate 500 g al/ha)
50: AMBEL phytotoxicity rating ([14]; Rate 125 g al/ha) | IPOHE phytotoxicity rating ([16]; Rate 125 g al/ha) | crop damage rating RICE ([22]; rate 500 g ai/ha)
20: SORHA phytotoxicity rating ([19]; Rate 125 g al/ha) | crop damage rating RICE ([22]; rate 63 g ai/ha) | crop damage rating SOY ([25]; rate 63 g ai/ha)
10: phytotoxicity rating DIGSA ([4]; rate 500 g ai/ha) | ECHCG phytotoxicity rating ([17]; Rate 125 g al/ha) | crop damage rating CORN ([23]; rate 63 g ai/ha) | crop damage rating CORN ([23]; rate 500 g ai/ha) | phytotoxicity rating AMBEL ([24]; rate 63 g ai/ha) | phytotoxicity rating AMBEL ([24]; rate 500 g ai/ha)
30: SOY crop damage rating ([1]; Rate 500 g al/ha) | CASOB phytotoxicity rating ([18]; Rate 125 g al/ha) | CORN crop damage rating ([21]; Rate 125 g al/ha) | CORN crop damage rating ([21]; Rate 500 g al/ha)
70: RICE crop damage rating ([20]; Rate 500 g al/ha)
99: phytotoxicity rating CHEAL ([5]; rate 500 g ai/ha)
100: phytotoxicity rating ABUTH ([3]; rate 63 g ai/ha) | phytotoxicity rating ABUTH ([3]; rate 500 g ai/ha) | phytotoxicity rating AMARE ([6]; rate 500 g ai/ha) | SETVI phytotoxicity rating ([10]; Rate 500 g al/ha) | ABUTH phytotoxicity rating ([11]; Rate 125 g al/ha) | ABUTH phytotoxicity rating ([11]; Rate 500 g al/ha) | CHEAL phytotoxicity rating ([13]; Rate 125 g al/ha) | CHEAL phytotoxicity rating ([13]; Rate 500 g al/ha) | AMARE phytotoxicity rating ([15]; Rate 125 g al/ha) | AMARE phytotoxicity rating ([15]; Rate 500 g al/ha) | IPOHE phytotoxicity rating ([16]; Rate 500 g al/ha) | CASOB phytotoxicity rating ([18]; Rate 500 g al/ha)
40: phytotoxicity rating SETVI ([2]; rate 63 g ai/ha) | phytotoxicity rating IPOHE ([7]; rate 63 g ai/ha)
0: SOY crop damage rating ([1]; Rate 125 g al/ha) | phytotoxicity rating DIGSA ([4]; rate 63 g ai/ha) | phytotoxicity rating ECHCG ([8]; rate 63 g ai/ha) | DIGSA phytotoxicity rating ([12]; Rate 125 g al/ha)
60: phytotoxicity rating SETVI ([2]; rate 500 g ai/ha)
95: phytotoxicity rating AMARE ([6]; rate 63 g ai/ha) | phytotoxicity rating IPOHE ([7]; rate 500 g ai/ha)
90: SETVI phytotoxicity rating ([10]; Rate 125 g al/ha) | AMBEL phytotoxicity rating ([14]; Rate 500 g al/ha) | ECHCG phytotoxicity rating ([17]; Rate 500 g al/ha) | SORHA phytotoxicity rating ([19]; Rate 500 g al/ha) | crop damage rating SOY ([25]; rate 500 g ai/ha)

Cn1nc(-c2cc(Oc3ncccc3C#N)c(Cl)cc2F)c(Cl)c1C(F)(F)F [Compound 1-3]
40: phytotoxicity rating SORHA ([19]; 500 g ai/ha) | crop damage rating CORN ([21]; 500 g ai/ha)
10: IPOHE phytotoxicity rating (0-100) ([7]; 500 g al/ha) | CORN crop damage rating (0-100) ([23]; 500 g al/ha)
80: DIGSA phytotoxicity rating (0-100) ([4]; 500 g al/ha) | SORHA phytotoxicity rating (0-100) ([9]; 500 g al/ha) | phytotoxicity rating CASOB ([18]; 500 g ai/ha) | AMBEL phytotoxicity rating (0-100) ([24]; 500 g al/ha)
95: crop damage rating SOY ([1]; 500 g ai/ha) | CHEAL phytotoxicity rating (0-100) ([5]; 63 g al/ha) | phytotoxicity rating SETVI ([10]; 125 g ai/ha)
100: ABUTH phytotoxicity rating (0-100) ([3]; 500 g al/ha) | CHEAL phytotoxicity rating (0-100) ([5]; 500 g al/ha) | AMARE phytotoxicity rating (0-100) ([6]; 63 g al/ha) | AMARE phytotoxicity rating (0-100) ([6]; 500 g al/ha) | phytotoxicity rating CHEAL ([13]; 500 g ai/ha) | phytotoxicity rating AMARE ([15]; 125 g ai/ha) | phytotoxicity rating AMARE ([15]; 500 g ai/ha) | phytotoxicity rating ECHCG ([17]; 500 g ai/ha)
70: ABUTH phytotoxicity rating (0-100) ([3]; 63 g al/ha) | ECHCG phytotoxicity rating (0-100) ([8]; 500 g al/ha) | RICE crop damage rating (0-100) ([22]; 500 g al/ha)
90: SETVI phytotoxicity rating (0-100) ([2]; 500 g al/ha) | IPOHE phytotoxicity rating (0-100) ([7]; 63 g al/ha) | phytotoxicity rating CHEAL ([13]; 125 g ai/ha) | SOY crop damage rating (0-100) ([25]; 500 g al/ha)
0: crop damage rating SOY ([1]; 125 g ai/ha) | SETVI phytotoxicity rating (0-100) ([2]; 63 g al/ha) | DIGSA phytotoxicity rating (0-100) ([4]; 63 g al/ha) | ECHCG phytotoxicity rating (0-100) ([8]; 63 g al/ha) | phytotoxicity rating ABUTH ([11]; 500 g ai/ha) | phytotoxicity rating DIGSA ([12]; 500 g ai/ha) | phytotoxicity rating IPOHE ([16]; 125 g ai/ha) | phytotoxicity rating ECHCG ([17]; 125 g ai/ha) | phytotoxicity rating CASOB ([18]; 125 g ai/ha) | phytotoxicity rating SORHA ([19]; 125 g ai/ha) | crop damage rating RICE ([20]; 125 g ai/ha) | crop damage rating CORN ([21]; 125 g ai/ha) | CORN crop damage rating (0-100) ([23]; 63 g al/ha) | AMBEL phytotoxicity rating (0-100) ([24]; 63 g al/ha)
30: phytotoxicity rating IPOHE ([16]; 500 g ai/ha) | crop damage rating RICE ([20]; 500 g ai/ha) | SOY crop damage rating (0-100) ([25]; 63 g al/ha)
50: phytotoxicity rating AMBEL ([14]; 125 g ai/ha) | phytotoxicity rating AMBEL ([14]; 500 g ai/ha)
20: SORHA phytotoxicity rating (0-100) ([9]; 63 g al/ha) | phytotoxicity rating ABUTH ([11]; 125 g ai/ha) | phytotoxicity rating DIGSA ([12]; 125 g ai/ha) | RICE crop damage rating (0-100) ([22]; 63 g al/ha)
